This note sets out measurements from patent publication US8552208B2, “Analogs of tetramic acid” (University of Tennesseee Research Foundation, priority 2007, dated 2013).

In brackets after ≈: the same amount, converted by molar mass. Where two headings read alike, the source gives them in different places.

The test system of data set [1] is Mycobacterium tuberculosis H37 Rv. Put plainly: Antibacterial activity assay (MIC, broth dilution). The data set is classed as cell-based. The settings on record: H37RV, 168 h; Mycobacterium tuberculosis H37 Rv; […]; read-out: MIC, TB. Background: Broth dilution looks for growth in wells or tubes with falling amounts of substance.
Data set [2] has as its system Bacillus anthracis Sterne 34F2. Put plainly: microbe, parasite or virus in culture. The settings on record: STERNE34F2, read-out: MIC, BA. The data set is classed as cell-based.
The subject of data set [3] is Bacillus subtilis ATCC 23857. Put plainly: Antibacterial activity assay (MIC, broth dilution). It is filed as cell-based. The settings on record: ATCC23857; Bacillus subtilis ATCC 23857; read-out: MIC, BS.
Data set [4] relates to Streptococcus pneumoniae DAW30EC. Put plainly: Antibacterial activity assay (MIC, broth dilution). It is filed as cell-based. The settings on record: Streptococcus pneumoniae DAW30EC; read-out: MIC, SPn.
Data set [5] relates to Enterococcus faecalis ATCC 33186. Put plainly: Antibacterial activity assay (MIC, broth dilution). It is filed as cell-based. The settings on record: ATCC33186; Enterococcus faecalis ATCC 33186; read-out: MIC, EF.
Data set [6] relates to Methicillin Resistant Staphylococcus aureus ATCC 33591. Put plainly: Antibacterial activity assay (MIC, broth dilution). It is filed as cell-based. The settings on record: ATCC 33591 / MRSA, read-out: MIC, MRSA.
In data set [7] the test system is Methicillin sensitive Staphylococcus aureus 8325 ATCC 35556. Put plainly: Antibacterial activity assay (MIC, broth dilution). The settings on record: ATCC 35556 / MSSA; Methicillin sensitive Staphylococcus aureus 8325 ATCC 35556; read-out: MIC, MSSA. It is filed as cell-based.
Data set [8] has as its system Propionibacterium acnes ATCC 6919. Put plainly: Antibacterial activity assay (MIC, broth dilution). The data set is classed as cell-based. The settings on record: Cutibacterium acnes, ATCC6919; Propionibacterium acnes ATCC 6919; read-out: MIC, PA.
Data set [9] relates to Streptococcus pyogenes ATCC 700294. Put plainly: Antibacterial activity assay (MIC, broth dilution). It is filed as cell-based. The settings on record: ATCC700294; Streptococcus pyogenes ATCC 700294; read-out: MIC, SP.
A short description of data set [10]: Cytotoxicity assay (MTT). It is filed as cell-based, monkey. The settings on record: monkey, Vero cells, 72 hours, MTT, read-out: IC50 (Cytotoxicity): Concentration which reduces viability of Vero kidney cells by 50%. As for the experimental part:
(§1) Cytotoxicity assays of drugs of Formula I of Example 3 and of Formula II of Example 5 were performed using the Vero monkey kidney cell line (ATCC, CCL-81). Vero cells were grown in tissue culture flasks in Dulbecco's Modified Eagle's Medium (ATCC) supplemented with 10% fetal bovine serum and maintained in a humidified incubator (37° C., 5% CO2). Cells were removed with a cell scraper, collected by centrifugation and then suspended in fresh medium at ˜10^6 cells/mL. The cell suspensions were dispensed into 96-well microtiter plates (100 μl/well) and incubated for 18 hours at 37° C. before being used for cytotoxicity assays. Test compounds were subsequently added at concentrations ranging from 400-0.024 μg/mL and 0.1% vol/vol of Triton-X 100, which causes 100% death of cells, was included as a control. After incubating cells and compounds for 72 hours in humid air (37° C., 5% CO2) the cytopathic effects of compounds were determined using the MTT Cell Proliferation Assay (ATCC, Cat No. 30-1010K). The MTT solution reagent (10 μl) was added to each well and plates incubated at 37° C. until sufficient purple color development occurred in cells (3 hours). After detergent cell lysis, the purple formazan product was measured at 570 nm in a Synergy HT Biotek microplate reader. IC50 data was obtained from dose response curves plotted from percentage activity versus log10 concentration using Graphpad prism 5.

Data set [11] relates to Vero monkey kidney cell line (ATCC, CCL-81). Put plainly: Cytotoxicity assay (MTT). It is filed as cell-based. The settings on record: IC50 divided by MIC against S. aureus 8325. As for the experimental part:
as §1

The subject of data set [12] is MRSA (ATCC 35391) biofilm. Put plainly: Calgary Biofilm Device anti-biofilm activity. The data set is classed as cell-based, Staphylococcus aureus. The settings on record: Staphylococcus aureus, MRSA biofilm, triplicate runs listed singly; for MBC: read-out: MBEC = Minimum Biofilm Eradication Concentration; for MIC: read-out: MBIC = Minimum Biofilm Inhibitory Concentration.

The test system of data set [13] is S. epidermidis (RP62A) biofilm. Put plainly: Calgary Biofilm Device anti-biofilm activity. The settings on record: Staphylococcus epidermidis, S. epidermidis biofilm, triplicate runs listed singly; for MBC: read-out: MBEC = Minimum Biofilm Eradication Concentration; for MIC: read-out: MBIC = Minimum Biofilm Inhibitory Concentration. It is filed as cell-based.
Data set [14] relates to MSSA (ATCC 25293) biofilm. Put plainly: Calgary Biofilm Device anti-biofilm activity. The settings on record: Staphylococcus aureus, MSSA biofilm, triplicate runs listed singly; for MBC: read-out: MBEC = Minimum Biofilm Eradication Concentration; for MIC: read-out: MBIC = Minimum Biofilm Inhibitory Concentration. It is filed as cell-based.
The test system of data set [15] is clinical isolates of MRSA (methicillin resistant S. aureus). The data set is classed as cell-based.
Data set [16] has as its system clinical isolates of MSSA (methicillin sensitive S. aureus). The data set is classed as cell-based.
Data set [17] has as its system methicillin-sensitive S. aureus ATCC 29213. Put plainly: Superficial skin infection model in mice. The data set is classed as in vivo, Balb/c mice. The settings on record: 2% ointment, topical, twice daily for three days; bacteria in lesions on day 5; placebo 8.15 +/− 0.37. As for the experimental part: Compounds of the invention were tested for the ability to treat skin infections utilizing an established animal model of skin infection. The superficial skin infection model used in this study was previously developed by Kugelberg et al, “Establishment of a Superficial Skin Infection Model in Mice using Staphylococcus aureus and Streptococcus pyogenes”, Antimicrob. Agents Chemother., 49(8):3435-3441 (2005).
Superficial infections in Balb/c mice (male) were caused by first removing hair from the backs of mice with an electric shaver, followed by dry shaving with a razor and tape stripping with Tensoplast® (BSN Medical Inc., Charlotte, N.C.) adhesive bandage to remove the epidermis, followed by infection with a 5 μl bacterial suspension containing about 10^7 bacterial cells of methicillin-sensitive S. aureus ATCC 29213, a strain from a previous isolate from a human wound infection and used in other murine infection studies. After 4 hours of infection, treatment was started by administering 45-50 mg of ointment containing (i) vehicle hydrophilic petrolatum (placebo) (ii) 2% w/w mupirocin ointment (Bactroban®, GlaxoSmithKline plc., United Kingdom) in vehicle or (iii) 2% tetramic acid analogue of the invention (13b) in vehicle, (iv) 10% tetramic acid analogue of the invention (13b) in vehicle, (v) 2% tetramic acid analogue of the invention (13l) in vehicle, or (vi) 10% tetramic acid analogue of the invention (13l) in vehicle. Treatment was continued for three days with drug application twice daily at 8 hour intervals. On day 5, mice were sacrificed and the numbers of bacteria in lesions were enumerated.
This conclusion stems from statistical analysis of the resulting means by one way ANOVA followed by Tukey's test at P<0.01 with Placebo as the control group. Therefore, the tetramic acid analogues of the invention have the potential to be used clinically for the treatment of skin infections, such as those caused by Staphylococcus aureus.

Setting [18] is: Vero monkey kidney cells (ATCC CCL-81).

`CCCCCCCCCCN1C(=O)/C(=C(/C)O)C(=O)[C@@H]1C(C)C` [Compound 13i, (S,Z)-1-decyl-3-(1-hydroxyethylidene)-5-isopropylpyrrolidine-2,4-dione]: the MIC was determined as 12.5 µg/mL (≈ 38.6 µM) in data set [1]; 0.8 µg/mL (≈ 2.47 µM) in data set [2]; 0.4 µg/mL (≈ 1.24 µM) in data set [3]; 6.25 µg/mL (≈ 19.3 µM) in [4]; 0.8 µg/mL (≈ 2.47 µM) in data set [5]; 0.8 µg/mL (≈ 2.47 µM) in [6]. Besides, the MIC in [7] is 0.8 µg/mL (≈ 2.47 µM); in data set [8], 0.4 µg/mL (≈ 1.24 µM); in [9] it was 25 µg/mL (≈ 77.3 µM); in [12], 0.8 µg/mL (≈ 2.47 µM); in [13], 0.8 µg/mL (≈ 2.47 µM); in data set [14] it was 0.8 µg/mL (≈ 2.47 µM). Further, in data set [10] (setting [18]), the IC50 at 72 h came to 7 µg/mL. Also, the “IC50/MIC = Selectivity (therapeutic) index” value in data set [11] worked out at 8.8. Also, the MBC in data set [12] amounted to 25 µg/mL (≈ 77.3 µM); in [13], 25 µg/mL (≈ 77.3 µM); in data set [14], 100 µg/mL (≈ 309 µM).

On to `C/C(O)=C1\C(=O)[C@H](CC(C)C)N(Cc2ccc(-c3ccccc3)cc2)C1=O` [Compound 13k, (S,Z)-1-(biphenyl-4-ylmethyl)-3-(1-hydroxyethylidene)-5-isobutylpyrrolidine-2,4-dione], for which the MIC in data set [1] is 50 µg/mL (≈ 138 µM); in data set [2], 0.4 µg/mL (≈ 1.1 µM); in data set [3], 0.4 µg/mL (≈ 1.1 µM); in data set [4], 12.5 µg/mL (≈ 34.4 µM); in data set [5], 0.8 µg/mL (≈ 2.2 µM); in [6], 0.8 µg/mL (≈ 2.2 µM). The MIC is below 0.1 µg/mL in data set [7]; 0.2 µg/mL (≈ 0.55 µM) in [8]; 25 µg/mL (≈ 68.8 µM) in data set [9]; 0.8 µg/mL (≈ 2.2 µM) in data set [12]; 1.6 µg/mL (≈ 4.4 µM) in [13]; 3.12 µg/mL (≈ 8.58 µM) in data set [14]. Further, in data set [10] (setting [18]), the IC50 at 72 h was found to be 19.7 µg/mL. In addition, the “IC50/MIC = Selectivity (therapeutic) index” value in data set [11] is on record as above 197. Also, the “Antibiotic MIC” value worked out at 1.6 µg/mL in data set [15] (isolate MRSA-1); 1.6 µg/mL in data set [15] (isolate MRSA-2); 1.6 µg/mL in data set [15] (isolate MRSA-3); 1.6 µg/mL in data set [15] (isolate MRSA-4); 1.6 µg/mL in [15] (isolate MRSA-5); 0.8 µg/mL in data set [15] (isolate MRSA-6). Besides, the “Antibiotic MIC” value in data set [15] (isolate MRSA-7) came to 0.8 µg/mL; in [15] (isolate MRSA-8), 0.4 µg/mL; in data set [15] (isolate MRSA-9), 1.6 µg/mL; in data set [15] (isolate MRSA-10) it was 0.8 µg/mL; in [16] (isolate MSSA-11), 1.6 µg/mL; in data set [16] (isolate MSSA-12), 0.8 µg/mL. The “Antibiotic MIC” value in data set [16] (isolate MSSA-13) was determined as 0.8 µg/mL; in data set [16] (isolate MSSA-14), 0.8 µg/mL; in [16] (isolate MSSA-15), 0.4 µg/mL; in data set [16] (isolate MSSA-16), 0.8 µg/mL; in data set [16] (isolate MSSA-17), 0.8 µg/mL; in data set [16] (isolate MSSA-18), 0.8 µg/mL. Also, the “Antibiotic MIC” value in data set [16] (isolate MSSA-19) and in data set [16] (isolate MSSA-20) was 0.8 µg/mL throughout. In addition, the values for the MBC in [12], in data set [13] and in data set [14] were 100 µg/mL (≈ 275 µM), 200 µg/mL (≈ 550 µM) and 100 µg/mL (≈ 275 µM), respectively.

For `CC(C)=CCCC(C)CCN1C(=O)/C(=C(/C)O)C(=O)[C@@H]1CC(C)C` (stereo partly drawn) [Compound 13m, (5S,Z)-1-(3,7-dimethyloct-6-enyl)-3-(1-hydroxyethylidene)-5-isobutylpyrrolidine-2,4-dione], the MIC in data set [1] is 200 µg/mL (≈ 596 µM); in [2] it was 0.4 µg/mL (≈ 1.19 µM); in data set [3], 0.8 µg/mL (≈ 2.38 µM); in [4] it was 3.25 µg/mL (≈ 9.69 µM); in data set [5], 0.8 µg/mL (≈ 2.38 µM); in data set [6], 0.8 µg/mL (≈ 2.38 µM). The MIC in data set [7] was 0.4 µg/mL (≈ 1.19 µM); in data set [8], 0.4 µg/mL (≈ 1.19 µM); in data set [9], 25 µg/mL (≈ 74.5 µM); in data set [12] it was 0.8 µg/mL (≈ 2.38 µM); in data set [13], 0.4 µg/mL (≈ 1.19 µM); in data set [14] it was 0.8 µg/mL (≈ 2.38 µM). For the same compound, in data set [10], the IC50 at 72 h came out at 7.3 µg/mL. Moreover, the “IC50/MIC = Selectivity (therapeutic) index” value in data set [11] was 18.3. Further, the MBC in [12] was 50 µg/mL (≈ 149 µM); in [13], 200 µg/mL (≈ 596 µM); in data set [14], 200 µg/mL (≈ 596 µM).

`C/C(=C\C(=O)OCCCCCCCCC(=O)O)C[C@@H]1OC[C@H](C[C@@H]2O[C@H]2[C@@H](C)[C@H](C)O)[C@@H](O)[C@H]1O` [Mupirocin, mupirocin, reference compound]: the MBC in [12], in data set [13] and in [14] was above 400 µg/mL in each case. The MIC in data set [12], in data set [13] and in data set [14] was below 0.2 µg/mL in each case. Also, in data set [17], the “Mean Bacterial Count (log10) +/− SD” value was 5.95 +/− 0.92 log10.
